The target of one series is human 5-HT7a receptor (Homo sapiens (Human), UniProt P34969). The series is described as follows: Radioligand binding competition, filtration binding assay, 5-HT7a. To be noted: affinity on 5-HT7 receptor, table of new compounds.
A short description of series [1]: Pharmacokinetic study in plasma and brain. The series is classed as in vivo, C57BL/6 mice. The note with it: 5 mg/kg, subcutaneous. The procedure: FIG. 20: Pharmacokinetic study of E55888 and Serodolin. Concentration-time profile of E55888 (reference agonist) and Serodolin in plasma (A) and brain (B) following subcutaneous injection of a unique dose 5 mg/kg of each compound in C57BL/6 mice. Data represent the mean concentration±SEM of n=4 each time point.
The pharmacokinetic study was undertaken to evaluate and compare the quantity of Serodolin and E55888 in plasma and brain samples from C57BL/6 mice (Janvier, Le Genest France) at several time points. Seven weeks old C57BL/6 mice (n=4 animals per group) received by subcutaneous injection a unique dose (5 mg/kg) of Serodolin or E55888 (U103013S, Achemblock). Control group received vehicle (solution of 20% DMSO and 5% Tween 80 diluted in NaCl). […] Blank vehicle mouse brains homogenates and plasma were used to established standard curves of Serodolin or E55888. […] Study samples, brains homogenates and plasma, were prepared for protein precipitation by adding 85 μL of acetonitrile+5-CT to 20 μL of samples. LC-HRMS analysis for PK studies were performed on a maXis Q-TOF mass spectrometer (Bruker, Bremen, Germany) coupled to an U3000 RSLC UHPLC system (Dionex, Germering, Germany). Separation was obtained using an Acquity UPLC BEH C18 column (2.1×50 mm; 1.7 μm) (Waters, Saint-Quentin-en-Yvelines, France) thermostated at 40° C. with a gradient of water (solvent A) and acetonitrile (solvent B), both acidified with 0.1% formic acid at 500 μL/min. […] The samples were randomized prior analysis; 1.25 μL were injected for plasma and 8 μL for brains. […] Area were integrated from extracted ion chromatograms (EIC) of [M+H]+ ions using QuantAnalysis 4.4 software (Bruker) with a tolerance of ±0.005 u.
The pharmacokinetics profile of both compounds were evaluated. The inventors used liquid chromatography tandem mass spectrometry (UPLC-MS/MS) method to perform PK study and measure Serodolin vs E55888 levels in vivo.

Sequence of human 5-HT7a receptor (P34969 other isoform, or with tags, fused parts or gaps): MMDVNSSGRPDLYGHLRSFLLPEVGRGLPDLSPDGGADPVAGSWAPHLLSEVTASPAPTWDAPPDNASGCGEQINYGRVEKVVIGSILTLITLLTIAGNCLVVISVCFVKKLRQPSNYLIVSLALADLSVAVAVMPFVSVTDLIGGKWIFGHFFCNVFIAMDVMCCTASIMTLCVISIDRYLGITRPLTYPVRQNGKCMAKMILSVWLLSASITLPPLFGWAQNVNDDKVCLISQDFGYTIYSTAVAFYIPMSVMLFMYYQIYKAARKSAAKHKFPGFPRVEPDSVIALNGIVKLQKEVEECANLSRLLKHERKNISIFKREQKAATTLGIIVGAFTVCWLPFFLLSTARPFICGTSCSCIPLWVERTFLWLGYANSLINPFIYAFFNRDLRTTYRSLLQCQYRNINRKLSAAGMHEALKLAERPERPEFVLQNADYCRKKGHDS

The term IC50 denotes the point on the concentration scale where inhibition reaches its midpoint. Read a low IC50 as higher potency. As a reminder, the Ki is a measure of affinity in units of concentration, obtained from inhibition or displacement. On human 5-HT7a receptor, `O=c1[nH]c2ccccc2n1CN1CCN(c2ccc(F)cc2)CC1` [Serodolin] registered a half-inhibitory concentration (IC50) of 1.14 nM and a Ki of 0.8 nM. Further, the “passage of the brain blood barrier” value in series [1] is “ability to pass the brain blood barrier”. The “time of maximum of detection” value in series [1] (both in plasma and brain) lay in the range of 15 to 30 min. Moreover, the “maximum of detection in brain” value in series [1] (brain) was determined as 0.4 ± 0.8 µg/mL. Moreover, in series [1] (plasma), the “maximum of detection in plasma” value turned out to be 2.9 ± 0.8 µg/mL. Besides, in series [1] (plasma and brain), the “time after which eliminated / undetectable” value amounted to 240 min.

The values above are taken from patent US20240199555A1, “APPLICATIONS OF BIASED LIGANDS OF THE SEROTONIN 5-HT7 RECEPTOR FOR THE TREATMENT OF PAIN, MULTIPLE SCLEROSIS AND THE CONTROL OF THERMOREGULATION” (Centre National de la Recherche Scientifique, priority 2021, published 2024).
